Columns and labels:
hSTING WT = molecular target: T1, hSTING WT (Homo sapiens, UniProt Q86WV6, H232R); test: Differential scanning fluorometry (DSF) binding to purified STING AA140-379, wild type; conditions: for hSTING Tm Shift WT: DSF, ligand 1 mM, 1 mg/ml STING AA140-379
T1 construct: DNA encoding amino acids 140-379 (amino acid numbering corresponding to Swiss Prot Q86WV6); 6xHIS (N, cleaved yes); SUMO (N, cleaved yes); made in house; host or cells: Rosetta2 (DE3) E. coli
Protocol: (§1) Cells were grown in lysogeny broth at 37° C. until a […] absorbance of 0.6 was reached. […] Cell pellets were re-suspended on ice in a buffer containing 50 mM Tris hydrochloride (Tris-HCl) pH 7.5, 500 mM sodium chloride (NaCl), 20 mM imidazole, 10% glycerol, 1 mM tris(2-carboxyethyl)phosphine hydrochloride (TCEP) and protease inhibitor tablet (Pierce) (Buffer A). Cells were lysed using an S-450D sonifier (Emmerson industrial) on ice. […] Protein was aliquoted, flash frozen in liquid nitrogen and stored at −80° C. until use.
(§2) The protein is heated in the presence of a dye that binds to and fluoresces in hydrophobic environments. The protein is thermally denatured by heating resulting in increased dye binding to the unfolded protein and fluorescence. The temperature midpoint (Tm) of a proteins denaturation is established by calculating the half maximal value of the denaturation curve. The temperature midpoint of the protein in the presence of a ligand is directly related to the affinity of the ligand for the protein and therefore its ability to stabilize the protein at higher temperatures.
(§3) Each of wild type hSTING, HAQ allele hSTING and REF allele hSTING were used with each of the reference compounds and compounds of the invention as listed in Table 4. Samples were placed in hard shell PCR plate (Bio-Rad). The fluorescence as a function of temperature was recorded in a CFX 96 real time PCR machine (Bio-Rad) reading on the HEX channel, excitation 450-490, emission 560-580 nm. The temperature gradient was from 15-80° C. ramping 0.5° C. per 15 seconds and recording every 0.5° C. After subtraction of the background signal from a sample lacking protein and ligand. The midpoint temperature (Tm) was calculated by fitting the curves of the fluorescence as a function of temperature to a Boltzmann sigmoidal function (Graph Pad Prism).

hSTING HAQ allele = molecular target: T2, hSTING HAQ allele (Homo sapiens, UniProt Q86WV6, G230A/H232R/R293Q); test: Differential scanning fluorometry (DSF) binding to purified STING AA140-379, HAQ allele; conditions: ligand 1 mM, 1 mg/ml STING AA140-379
T2 construct: DNA encoding amino acids 140-379 (amino acid numbering corresponding to Swiss Prot Q86WV6); 6xHIS (N, cleaved yes); SUMO (N, cleaved yes); made in house; host or cells: Rosetta2 (DE3) E. coli
T2 sequence (Q86WV6 140-379 G230A/H232R/R293Q limits assumed): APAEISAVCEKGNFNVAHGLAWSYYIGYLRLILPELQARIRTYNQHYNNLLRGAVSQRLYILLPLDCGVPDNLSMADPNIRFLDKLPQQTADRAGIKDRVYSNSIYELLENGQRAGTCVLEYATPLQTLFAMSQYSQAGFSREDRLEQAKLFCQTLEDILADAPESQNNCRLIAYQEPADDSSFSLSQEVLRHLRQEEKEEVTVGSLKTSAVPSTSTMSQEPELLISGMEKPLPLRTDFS
Protocol: as §1, §2, §3

hSTING REF allele = molecular target: T3, hSTING REF allele (Homo sapiens, UniProt Q86WV6); test: Differential scanning fluorometry (DSF) binding to purified STING AA140-379, REF allele; conditions: for hSTING Tm Shift REF: DSF, ligand 1 mM, 1 mg/ml STING AA140-379
T3 construct: DNA encoding amino acids 140-379 (amino acid numbering corresponding to Swiss Prot Q86WV6); 6xHIS (N, cleaved yes); SUMO (N, cleaved yes); made in house; host or cells: Rosetta2 (DE3) E. coli
T3 sequence (Q86WV6 140-379): as the sequence (Q86WV6 140-379 G230A/H232R/R293Q limits assumed) above, with A91G, R93H, Q154R counted along it
Protocol: as §1, §2, §3

[1] = molecular target: T4, hSTING HAQ allele in THP1-Dual cells (Homo sapiens, UniProt Q86WV6, G230A/H232R/R293Q/R71H); test: THP1-Dual IRF-3 inducible secreted luciferase reporter assay (type I interferon activation), without digitonin; assay type: cell-based
T4 construct: a human monocyte cell line containing the hSTING HAQ allele; host or cells: THP1-Dual cells
T4 sequence (Q86WV6 whole entry R71H/G230A/H232R/R293Q): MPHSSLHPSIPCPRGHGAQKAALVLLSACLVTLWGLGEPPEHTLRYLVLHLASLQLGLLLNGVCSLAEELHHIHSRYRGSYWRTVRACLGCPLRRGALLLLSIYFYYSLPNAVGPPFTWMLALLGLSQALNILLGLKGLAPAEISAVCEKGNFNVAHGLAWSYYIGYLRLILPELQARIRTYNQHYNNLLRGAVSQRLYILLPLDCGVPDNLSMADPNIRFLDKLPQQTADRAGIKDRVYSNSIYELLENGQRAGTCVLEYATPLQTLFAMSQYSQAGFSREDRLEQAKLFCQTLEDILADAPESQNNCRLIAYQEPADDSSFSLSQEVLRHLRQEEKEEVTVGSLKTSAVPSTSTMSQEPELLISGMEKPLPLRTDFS
Protocol: After 30 minutes, cells were washed and fresh RPMI media containing 10% FBS was added, and cells were incubated at 37° C. with 5% CO2 Cell culture supernatants from each sample were collected after overnight incubation, and 10 μL of the cell culture supernatants was added to 50 μL QUANTI-Luc reagent (Invivogen). Type I interferon activation was determined by measuring secreted luciferase levels on a SpectraMax M3 spectrophotometer (Molecular Devices).

[2] = tested on: B16.SIY melanoma tumor cells; test: B16.SIY melanoma tumor model, intra-tumoral injection (Example 13); assay type: in vivo, C57BL/6 mice; conditions: for tumor efficacy compared to reference compound 2′3′-RR-(A)(A): 1 μg dose; for tumor inhibition (tumor volume) compared to HBSS: single IT injection, 0.1, 1, 10 and 100 μg
Protocol: (§4) Tumors were measured twice weekly.

[3] = tested on: SIY-specific T cells in splenocytes; test: IFNγ ELISPOT of splenocytes stimulated with SIY peptide; assay type: in vivo, C57BL/6 mice; conditions: day 7 post IT injection; for IFNγ ELISPOT T cell responses compared to reference compound 2′3′-RR-(A)(A): 1 μg dose
[4] = tested on: serum TNF-α, IFN-γ, IL-6, MCP-1; test: Systemic serum pro-inflammatory cytokines by Mouse Inflammation Cytometric Bead Array; conditions: from serum cytokines six hours post-IT injection
Protocol: (§5) To assess the ability of the LNA-CDN molecules to promote anti-tumor immunity in aggressive murine tumor models, 6-8 week old female C57BL/6 mice (8 mice per group) were implanted with B16.SIY melanoma tumor cells (1×10^6 cells in 100 μL PBS). […] Treatments began when tumors reached a volume of approximately 100 mm^3, on day 9 post tumor implantation. The compounds were administered by a single subcutaneous injection into the center of the tumor (IT) using a 27 gauge needle. Tumors were measured twice weekly.

[5] = tested on: SIY-specific CD8+ T cells in splenocytes; test: FACS of splenocytes with SIY pentamer (SIY+ CD8+ T cells); assay type: in vivo, C57BL/6 mice; conditions: day 7 post IT injection
Protocol: as §4
Data analysis was conducted with FlowJo software (Tree Star).

[6] = tested on: serum TNF-α, IFN-γ, IL-6, MCP-1; conditions: mouse, in vivo
Protocol: as §5

B16.SIY melanoma cells [7] = test: B16.SIY melanoma tumor model in WT mice (Example 14); assay type: in vivo, C57BL/6 (WT) mice; conditions: single IT injection, 100 μg
Protocol: as §4

B16.SIY melanoma cells [8] = test: B16.SIY melanoma tumor model in STING-deficient Goldenticket mice (Example 14); assay type: in vivo; conditions: STING-deficient GT mice; single IT injection, 100 μg
Protocol: as §4

[9] = for all three alleles (WT, HAQ, REF)

T1 sequence (Q86WV6 140-379 H232R limits assumed): as the sequence (Q86WV6 140-379 G230A/H232R/R293Q limits assumed) above, with A91G, Q154R counted along it

## Nc1ncnc2c1ncn2[C@@H]1O[C@@]23CO[C@@H]1[C@@H]2O[P@](=O)(S)OC[C@@]12CO[C@@H]([C@H](n4cnc5c(N)ncnc54)O1)[C@@H]2O[P@](=O)(S)OC3 [Compound 5a]
hSTING WT
  hSTING Tm Shift WT: 16.8 °C
hSTING WT; [9]
  Tm shift compared with natural ligand 2′3′-(G)(A): greater Tm shift than the natural ligand 2′3′-(G)(A)
  Tm shift compared with reference compound 2′3′-RR-(A)(A): comparable to or greater than that of the reference compound 2′3′-RR-(A)(A)
hSTING HAQ allele
  hSTING Tm Shift HAQ: 27.6 °C
hSTING REF allele
  hSTING Tm Shift REF: 10.6 °C
hSTING REF allele; for the REF allele
  Tm shift compared with 2′3′-RR-(A)(A) and 2′3′-(G)(A): greater Tm shift than both 2′3′-RR-(A)(A) and 2′3′-(G)(A)
[1]
  EC50: 41.6 µM
[2]; single IT injection
  tumor efficacy compared to reference compound 2′3′-RR-(A)(A): comparable tumor efficacy as compared to the reference compound 2′3′-RR-(A)(A)
[2]; single IT injection, 100 μg dose
  tumor regression: complete tumor regression
[2]
  tumor inhibition (tumor volume) compared to HBSS: potent tumor inhibition as compared to HBSS, in a dose-dependent manner
[3]
  IFNγ ELISPOT T cell responses compared to reference compound 2′3′-RR-(A)(A): comparable T cell responses
[3]; 0.1, 1 and 10 μg doses
  T cell production of IFNγ in response to SIY peptide stimulation, compared to HBSS: significantly higher T cell production of IFNγ
[4]
  safety profile compared to reference compound 2′3′-RR-(A)(A): comparable safety profile

## Nc1ncnc2c1ncn2[C@@H]1O[C@@H]2CO[P@@](=O)(S)O[C@H]3[C@H]4OC[C@]3(CO[P@](=O)(S)O[C@@H]1[C@@H]2O)O[C@H]4n1cnc2c(N)ncnc21 [Compound 10c]
hSTING WT
  hSTING Tm Shift WT: 6.5 °C
hSTING HAQ allele
  hSTING Tm Shift HAQ: 10.4 °C
hSTING REF allele
  hSTING Tm Shift REF: 5.0 °C
[1]
  EC50: > 150 µM
[2]; single IT injection
  tumor efficacy compared to reference compound 2′3′-RR-(A)(A): comparable tumor efficacy as compared to the reference compound 2′3′-RR-(A)(A)
[2]
  tumor inhibition (tumor volume) compared to HBSS: potent tumor inhibition as compared to HBSS, in a dose-dependent manner
[3]
  IFNγ ELISPOT T cell responses compared to reference compound 2′3′-RR-(A)(A): comparable responses
  range of efficacy (doses giving IFNγ ELISPOT response): an even broader range of efficacy than Compound 5a
[3]; all doses tested (0.1, 1, 10, 100 μg)
  IFNγ ELISPOT responses compared to HBSS: significantly higher responses
[5]
  range of dose responses (therapeutic window for anti-tumor immunity): a broader range of dose responses
[6]
  systemic cytokines compared with 2′3′-RR-(A)(A): significantly lower systemic cytokines than 2′3′-RR-(A)(A)
[4]
  safety profile compared to reference compound 2′3′-RR-(A)(A): superior safety profile

## Nc1nc2c(ncn2[C@@H]2O[C@@H]3CO[P@@](=O)(S)O[C@H]4[C@H]5OC[C@]4(CO[P@](=O)(S)O[C@@H]2[C@@H]3F)O[C@H]5n2cnc3c(N)ncnc32)c(=O)[nH]1 [Compound 15c, 2′3′-SR-(3′F-G)(2′O,4′C-LNA-A)]
B16.SIY melanoma cells [7]
  tumor rejection (tumor volume) compared to HBSS: complete tumor rejection
B16.SIY melanoma cells [8]
  anti-tumor effect (tumor volume): no anti-tumor effect

Reference: US11098077B2, “Locked nucleic acid cyclic dinucleotide compounds and uses thereof” (CHINOOK THERAPEUTICS, INC., priority 2016, dated 2021)
